The subject of one experiment is RAW 264.7 cells. The following applies: LPS-stimulated RAW 264.7 cells, literature; cited from earlier work.
Experiment [1] addresses cannabinoid type 2 receptor (CB2) (Homo sapiens, UniProt P34972). The note with it: Raduner et al., 2006; cited from earlier work.
Experiment [2] has as its system RBL-2H3 cells. Description: Fluo-4 calcium assay, RBL-2H3 cells (Example 1). It counts as cell-based, rat. The note with it: RBL-2H3 cells, 1 μM A23187, microscopy, n=5 fields. As to the method: FIGS. 3A-3H. A15 inhibits calcium influx in RBL-2H3 cells and BMMCs. RBL-2H3 cells (FIGS. 3A-3D) and BMMCs (FIGS. 3E-3H) were plated and incubated overnight prior to treatments. For DNP-BSA treatments, overnight incubation also included 1 μg/mL IgE anti-DNP. Prior to stimulation, cells were washed and loaded with the fluorescent, calcium-sensitive dye fluo-4 AM using the Fluo-4 AM Direct™ Calcium Assay Kit and fluorescence was measured on a microplate reader. Calcium influx was triggered in all experiments using either 1 μM A23187 or 50 ng/mL DNP-BSA, as indicated. Bar graphs represent the means±SEM of the Δ in RFU's at 1 min post-A23187- or DNP-BSA-stimulation from 3 independent experiments (FIGS. 3B, 3D, 3F, 3H). Statistical analysis was performed using a one-way ANOVA with Dunnett's post-hoc test, *p<0.05, **p<0.01, ***p<0.001.
FIG. 9. A15 inhibits calcium influx in RBL-2H3 cells. Prior to stimulation, cells were washed and loaded with the fluorescent, calcium-sensitive dye fluo-4 AM using the Fluo-4 AM Direct™ Calcium Assay Kit. Cells were treated with 100 μM A15 (D, E, F), 0.25% ethanol only (vehicle) (A, B, C), 1 μM A23187 (G, H, I), and 100 μM A15 in combination with 1 μM A23187 (J, K, L) as indicated. Images were acquired at 30, 60, and 120 seconds, post-stimulation. Images are representative of several experiments.
RBL-2H3, BMMC, RAW 264.7, or Jurkat cells were plated in clear-bottom, black, 96-well plates (BioExpress, Kaysville, Utah) and incubated overnight with media only or media containing IgE anti-DNP. Cells were loaded with the calcium-sensitive dye fluo-4 AM using the Fluo-4 Direct™ Calcium Assay Kit (Thermo Fisher Scientific) according to the manufacturer's instructions by incubating at 37° C. for 30 min followed by 30 min at room temperature. Prior to stimulation, baseline fluorescent readings were measured from triplicate wells in 5 s intervals for 1 min using a Synergy HT microplate reader with 485/20 nm excitation and 528/20 nm emission filters. Cells were then treated with either 1 μM A23187 or 50 ng/mL DNP-BSA prepared in calcium- and magnesium-containing or calcium- and magnesium-free HBSS with 20 mM HEPES, and fluorescence was measured in 10 s intervals for 2 min. The final concentration of ethanol was 0.25% in these assays. The average baseline fluorescence of each well was subtracted from the stimulated fluorescent values to calculate the change (Δ) in RFU's and graphed as shown.
Cells loaded with fluo-4 were treated and observed with an Axioskop 2 microscope (Zeiss, Oberkochen, Germany) using a fluorescent illuminator HXP-120 light source and images were acquired at 30, 60, or 120 sec after stimulation with a AxioCam MRc5 camera (Zeiss) and AxioVision software (Zeiss).

Experiment [3] concerns RBL-2H3 cells. Description: β-Hexosaminidase release assay (Example 3). The format is cell-based, rat. As to the method: FIGS. 21A-21D. The inhibition of degranulation is dependent on the length of the alkamide fatty acid chain. RBL-2H3 cells were plated overnight, stimulated with 1 μM A23187 (FIG. 21A) or 5 ng/mL DNP-BSA (FIG. 21B) for 1 h in the absence or presence of each compound. Graphs display the mean percent β-hex release. Data are presented as the mean of 4 experiments. Percent inhibition of degranulation of A23187 (FIG. 21C) or DNP-BSA (FIG. 21D) using data from A and B, respectively. *P<0.05, **P<0.01, ***P<0.001, one-way ANOVA with Dunnett's post hoc test compared to vehicle (A, B) or A15 (C, D).
RBL-2H3 cells (1.0×10^5 cells) were incubated with or without 0.1 μg/mL of IgE-DNP overnight in a 96 well plate at 37° C. with 5% CO2. The cells were washed with Tyrode's buffer and assayed with few modifications (Kuehn, Radinger, & Gilfillan, 2010). Briefly, IgE-DNP sensitized cells were stimulated 1 hour with 5 ng/mL of DNP-BSA in the absence or presence of each compound and incubated at 37° C. with 5% CO2. For experiments using only A23187 as the stimulant, cells were washed with Tyrode's buffer and stimulated 1 hour with 1 μM A23187 in the absence or presence of each compound and incubated at 37° C. with 5% CO2. The stimulated cells were centrifuged at 1200×g for 5 minutes. The supernatant or cell lysate (30 μL) was incubated with 3.4 mg/mL of p-NAG (10 μL) for 1 hour at 37° C. The reaction was terminated by addition of 0.2 M sodium carbonate (pH 10) and the absorbance was read at OD405 nm on a BioTek Synergy HT microplate reader. The total 3-hexosaminidase released from the cell was calculated as the difference between the OD of the supernatant and blank plus the difference between the OD of the lysate and blank. The percent β-hexosaminidase released from the cell was calculated as the difference between the OD of the supernatant and blank divided by the total β-hexosaminidase released from the cell multiplied by 100: ODsupernatant−ODblank/[(ODlysate−ODblank)+(ODsupernatant−ODblank)]*100.

In experiment [4] the test system is RBL-2H3 cells. Description: Calcium assay, Fluo-4 (Example 3). The format is cell-based, rat. On the procedure: FIGS. 22A-22D. The alkamide fatty acid is necessary for inhibition of calcium influx. RBL-2H3 cells were plated overnight, incubated with Fluo-4 AM for 1 h, stimulated by 1 μM A23187 (FIG. 22A) or 5 ng/mL DNP-BSA (FIG. 22B) in the absence or presence of each alkamide, and fluorescence was read for 2 mins every 5 secs. Data are presented as the mean change in RFU of 4 experiments. Percent inhibition of calcium influx was calculated for A23187 (FIG. 22C) and DNP-BSA (FIG. 22D) stimulated cells at 2 mins. *P<0.05, **P<0.01, and ***P<0.001 one-way ANOVA with Dunnett's post hoc test compared to A15.
RBL-2H3 cells (1.0×10^5 cells) were incubated overnight in a 96 well black-wall clear bottom plate with or without IgE-DNP (0.1 μg/mL) at 37° C. with 5% CO2. The assay was performed using the Fluo-4 Direct™ Calcium Assay Kit according to the manufacturer's instruction. Briefly, cells were incubated with the Fluo-4 Direct calcium reagent loading solution for 30 minutes at 37° C. with 5% CO2 then 30 mins at room temperature. Prior to stimulation, the well baseline fluorescence was measured every 5 seconds over 1 minute using a BioTek Synergy HT microplate reader with 485/20 nm excitation and 528/20 nm emission filters. Cells were stimulated with 1 μM A23187 or 5 ng/mL DNP (IgE-DNP) in the absence or presence of each compound, and the fluorescence was measured every 5 seconds over 2 minutes. The change in fluorescence (ΔRT) was calculated as the sample fluorescence minus the baseline fluorescence for each well.

The subject of experiment [5] is RBL-2H3 cells. Description: TNF-α ELISA, 18 hrs (Example 3). The format is cell-based, rat. The note with it: 1 μM A23187, 18 hours. On the procedure:
FIGS. 25A-25B. […] RBL-2H3 cells were plated overnight and stimulated with 1 μM A23187 in the absence or presence of each alkamide for 18 h. Culture supernatants were analyzed for TNF-α levels by ELISA and experiments were performed in triplicate (FIG. 25A). Percent inhibition of TNF-α secretion for each alkamide listed in FIG. 25B. *P<0.05, **P<0.01, ***P<0.001, one-way ANOVA with Dunnett's post hoc test compared to vehicle (FIG. 25A) or A15 (FIG. 25B).
RBL-2H3 cells (1.0×10^5 cells) were incubated overnight in a 24 well plate at 37° C. with 5% CO2. Cells were washed with 1×PBS and stimulated with 1 μM A23187 for 18 hrs in the absence or presence of each compound. The cells were centrifuged (1200×g, 5 min) and the supernatants were collected. The concentration of TNF-α in the supernatants were determined using the TNF-α ELISA kit.
Background: ELISA stands for enzyme-linked immunosorbent assay.

Molecules are shown by their SMILES.

Sequence of cannabinoid type 2 receptor (CB2) (P34972 whole entry, species assumed): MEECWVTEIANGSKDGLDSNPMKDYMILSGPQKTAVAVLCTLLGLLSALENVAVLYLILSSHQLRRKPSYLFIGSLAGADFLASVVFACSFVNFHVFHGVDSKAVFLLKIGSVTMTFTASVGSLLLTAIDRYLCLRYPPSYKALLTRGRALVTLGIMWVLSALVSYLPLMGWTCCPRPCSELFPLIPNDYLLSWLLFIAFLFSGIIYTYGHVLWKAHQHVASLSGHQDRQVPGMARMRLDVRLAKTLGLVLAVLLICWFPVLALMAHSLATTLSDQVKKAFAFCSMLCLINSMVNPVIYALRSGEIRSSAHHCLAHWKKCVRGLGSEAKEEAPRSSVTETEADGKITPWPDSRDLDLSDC

For `C/C=C\C=C/CC/C=C/C=C/C(=O)NCC(C)C` [A11a/b, dodeca-2E,4E,8Z,10Z(E)-tetraenoic acid isobutylamide, reference compound], in the experiment on RAW 264.7 cells, the TNF-α production result was “reduced TNF-α production”. In addition, the “binding to CB2” value in experiment [1] was “shown to bind”.
For the compound `CNc1ccc2oc(C[C@H]3O[C@@]4(CC[C@H]3C)O[C@H]([C@H](C)C(=O)c3ccc[nH]3)[C@H](C)C[C@H]4C)nc2c1C(=O)O` [A23187, reference compound], the “increase in fluorescence (pixel intensity)” value with RBL-2H3 cells [2] is recorded as 158.4%.
As to `CCN(CC)CCCCCCCCOC(=O)c1cc(OC)c(OC)c(OC)c1` [TMB-8, 3,4,5-trimethoxybenzoic acid 8-(diethylamino) octyl ester, reference compound], the β-hex release entry is given as “also inhibited” in the experiment with RBL-2H3 cells [3] (5 ng/mL DNP-BSA, 1 h) and “significantly inhibited β-hex release” with RBL-2H3 cells [3] (1 μM A23187, 1 h). Further, the “calcium response (Fluo-4 fluorescence over 2 min)” value in the experiment with RBL-2H3 cells [4] (5 ng/mL DNP-BSA) and with RBL-2H3 cells [4] (1 μM A23187) was “decreased rate of calcium entering the cytosol” each time.
In the case of `CCCCCCCCCCCC(=O)NCC(C)C` [YM5-27, N-Isobutyldodecanamide], the “percent inhibition of degranulation” value was 33% in the experiment on RBL-2H3 cells [3] (5 ng/mL DNP-BSA, 1 hour) and 40% in the experiment on RBL-2H3 cells [3] (1 μM A23187, 1 hour). Further, in the experiment on RBL-2H3 cells [5], the “percent inhibition of TNF-α secretion” value worked out at 76%. Moreover, the TNF-α production result with RAW 264.7 cells is recorded as “best inhibitors”. Besides, the “percent inhibition of calcium influx” value in the experiment with RBL-2H3 cells [4] (5 ng/mL DNP-BSA, at 2 minutes) is listed as 65%; with RBL-2H3 cells [4] (1 μM A23187, at 2 minutes), 79%.
Consider `CCCCCC(=O)NCC(C)C` [YM5-47, N-Isobutylhexanamide], for which the “percent inhibition of degranulation” value with RBL-2H3 cells [3] (5 ng/mL DNP-BSA, 1 hour) was 36%; with RBL-2H3 cells [3] (1 μM A23187, 1 hour), 51%. The “percent inhibition of TNF-α secretion” value in the experiment with RBL-2H3 cells [5] came to 47%. Also, the “percent inhibition of calcium influx” value with RBL-2H3 cells [4] (5 ng/mL DNP-BSA, at 2 minutes) is on record as 38%.
As for `CCCCCCCCCC(=O)NCC(C)C` [YM8-86, N-Isobutyldecanamide], the “percent inhibition of degranulation” value in the experiment on RBL-2H3 cells [3] (5 ng/mL DNP-BSA, 1 hour) was found to be 46%; in the experiment on RBL-2H3 cells [3] (1 μM A23187, 1 hour), 59%. Besides, the “percent inhibition of TNF-α secretion” value with RBL-2H3 cells [5] is recorded as 50%. Besides, the “percent inhibition of calcium influx” value turned out to be 40% in the experiment with RBL-2H3 cells [4] (5 ng/mL DNP-BSA, at 2 minutes) and 92% in the experiment on RBL-2H3 cells [4] (1 μM A23187, at 2 minutes).
`CCCC(=O)NCC(C)C` [YM8-87, N-Isobutylbutyramide]: the “percent inhibition of degranulation” value in the experiment with RBL-2H3 cells [3] (5 ng/mL DNP-BSA, 1 hour) amounted to 12%; in the experiment with RBL-2H3 cells [3] (1 μM A23187, 1 hour), 11%. In addition, the “rank as inhibitor of calcium influx” value with RBL-2H3 cells [4] (A23187 and DNP-BSA stimulation) is recorded as “least effective inhibitor of calcium influx”.

(Values after patent US20200290950A1, “ALKAMIDE COMPOUNDS AND USES THEREOF” (NORTH CAROLINA STATE UNIVERSITY, priority 2017, published 2020).)
